From US20080039531A1, “Compositions, and kits comprising targeted aldehyde or acetal protease inhibitor compounds for treating muscle disorders” (priority 2005, published 2008)
“Also recorded” adds a separate entry of the source.

What was measured:
[1] = tested on: MDX mice; assay: MDX mouse study: myofiber diameter after intramuscular leupeptin; format: in vivo; settings: for Myofiber diameter, Anterior tibialis / Myofiber diameter, Diaphragm / Myofiber diameter, Gastrocnemius / Myofiber diameter, Soleus: mdx mice, ± SD
Method: It is well documented that as, observed in DMD and BMD, dystrophin is dysfunctional/absent in the murine MDX model of muscular dystrophy. […] A series of studies to test the ability of the calpain inhibitor, leupeptin, to delay and/or prevent features of calcium-induced damage to dystrophic myofibers was initiated. Control C57BL/10SNJ mice were treated with intramuscular injections of normal saline. The MDX mice were treated intramuscularly with either normal saline or 12 mg/kg leupeptin or 18 mg/kg leupeptin twice daily. All injections were delivered in the hind-limbs in various locations to avoid muscle damage due to repeated injections at the same location. The gastrocnemius, soleus, anterior tibialis, and diaphragm muscles were examined in all animals.

[2] = Absorption of leupeptin into plasma after intramuscular injection (FIG. 2); format: in vivo, rats; settings: leupeptin 18 mg/kg intramuscular injection in hind-limbs
Method: To determine that leupeptin was effectively being absorbed into plasma following intramuscular (“IM”) administration in hind-limbs of 18 mg/kg, blood was withdrawn at 60, 75, 90, 120, 180 minutes and 24 hours after the IM injection (FIG. 2).

[3] = tested on: opponens and abductor myofibers; assay: Monkey study, intramuscular leupeptin: muscle morphology after delayed median nerve repair; format: in vivo, Cebus apella
Source text: (§1) In order to test the hypothesis that in vivo inhibition of calpains by leupeptin can facilitate neuromuscular recovery by inhibiting denervation atrophy of the skeletal-muscle target after complete peripheral nerve transection and delayed nerve repair (7), a monkey study (Cebus apella) was undertaken. This median-nerve model was chosen to approximate human anatomic and regenerative aspects.

[4] = tested on: Calpain; assay: Monkey study, intramuscular leupeptin: muscle calpain activities; format: in vivo, Cebus apella; settings: right, nerve-repaired opponens and abductor muscles, 12 and 24 weeks
Source text: as §1

[5] = Monkey study, oral leupeptin: hematology, blood clotting, serum biochemistry; format: in vivo; settings: monkeys, oral leupeptin 3, 6, 12, 18 mg/kg twice daily for 6 months after nerve repair
Method: (§2) Subsequent to the above studies another series of experiments were performed on the monkeys to assess another route of leupeptin administration in these animals (8). In this regard, oral delivery of leupeptin, after median nerve transection and epineural nerve repair, was studied for its potential benefits to neuromuscular recovery. […] When plasma leupeptin concentrations were 3 mg or greater, morphologic and functional motor recovery were facilitated after nerve repair.
Hematology/blood chemistry. Blood was drawn from the femoral vein at 1, 3, 4, 5, and 7 months postoperatively. Complete blood counts, clotting parameters, and serum chemistries in control animals and in animals after oral leupeptin administration at 3, 6, 12, and 18 mg/kg were quantified. Values were determined for hemoglobin, hematocrit, WBC, RBC, MCV, MCH, MCHC, differential (polymorphonuclear leukocytes, lymphocytes, monocytes, eosinophils, basophils), platelets, prothrombin time, partial thromboplastin time, glucose, urea nitrogen, creatinine, total protein, albumin, total bilirubin, alkaline phosphatase, SGPT, SGOT, lactic dehydrogenase, cholesterol, calcium, phosphorus, sodium, potassium, chloride, A/G, BUN/creatinine, globulin, amylase.

[6] = tested on: opponens pollicis and abductor pollicis myofibers; assay: Monkey study, oral leupeptin: myofiber diameter after median nerve repair; format: in vivo, monkeys; settings: for percentage atrophy: loss of myofiber diameter vs left, unoperated control group: 3 months post nerve repair
Method: as §2
When expressed as a percentage atrophy, in comparison to the left, unoperated control group, the right control group lost 63 percent of its myofiber diameter; the 3-mg group lost 53% of its myofiber diameter; the 6-mg group 23%; the 12-mg group 11%; and the 18-mg group only 8%.

[7] = tested on: calpain; settings: rats, IP, muscle isolated after 2 hours
Method: An initial series of toxicology experiments was performed in rats to assess the effect of CLA at various doses, on animal viability. […] A series of experiments to examine the ability of CLA vs. leupeptin to decrease activated calpain levels and inhibit muscle wasting was conducted. In the experiment shown in Table 4, rats were utilized to assess the effect of IP injection of either leupeptin or CLA into the hind limb muscle on their ability to inhibit calpain activity. To this end, four rats were injected IP with either leupeptin or CLA. After 2 hours, the muscle was isolated, homogenized, and assayed for remaining calpain activity by the standard assay.

[8] = 12 mg/kg leupeptin intramuscularly twice daily
[9] = 18 mg/kg leupeptin intramuscularly twice daily
[10] = left, unoperated hand of leupeptin treated monkeys, 24 weeks

For `CC(=O)N[C@@H](CC(C)C)C(=O)N[C@@H](CC(C)C)C(=O)N[C@H](C=O)CCCNC(=N)N` [Leupeptin], the “increase in myofiber diameter vs untreated MDX muscle” value (“increase … vs untreated MDX muscle” below) ([1]; anterior tibialis, 12 mg/kg) was 35%, the “increase … vs untreated MDX muscle” value ([1]; anterior tibialis, 18 mg/kg) was 36% and the “increase … vs untreated MDX muscle” value ([1]; diaphragm, 12 mg/kg) was 25%. The “increase … vs untreated MDX muscle” value ([1]; diaphragm, 18 mg/kg) was 25%, the “increase … vs untreated MDX muscle” value ([1]; gastrocnemius, 12 mg/kg) was 37% and the “increase … vs untreated MDX muscle” value ([1]; gastrocnemius, 18 mg/kg) was 39%. For the same compound, the Myofiber diameter, Anterior tibialis [1, 8] was 37.5 ± 2.8 µm, the Myofiber diameter, Diaphragm [1, 8] was 21.8 ± 0.9 µm and the Myofiber diameter, Gastrocnemius [1, 8] was 32.9 ± 2.6 µm. For the same compound, the Myofiber diameter, Soleus [1, 8] was 24.7 ± 1.8 µm, the Myofiber diameter, Anterior tibialis [1, 9] was 38.3 ± 1.3 µm and the Myofiber diameter, Diaphragm [1, 9] was 21.7 ± 1.8 µm. The Myofiber diameter, Gastrocnemius [1, 9] was 34 ± 2.7 µm, the Myofiber diameter, Soleus [1, 9] was 25.5 ± 2.3 µm and the “increase … vs untreated MDX muscle” value ([1]; soleus, 12 mg/kg) was 22%. For the same compound, the “increase … vs untreated MDX muscle” value ([1]; soleus, 18 mg/kg) was 25%, the peak plasma level [2] was 4.5 µg/mL and the “time of plasma peak” value [2] was 1 h. For the same compound, the concentration at 24 h ([2]; rat, plasma, 24 hr, read-out: plasma level by 24 hr) was 0 ng/mL, the “mean myofiber diameter, abductor” value [3, 10] was 40.43±2.23 μm and the “mean myofiber diameter, opponens” value [3, 10] was 43.25±4.26 μm. The “myofiber diameter vs control animals” value ([3]; right, nerve-repaired hand, opponens and abductor, 12 and 24 weeks (FIG. 3)) was “statistically significant increase”, the “mean increase of calpain activities in control animals compared to leupeptin treated animals” value [4] was 50% and the “hematology, blood clotting and serum biochemistry” value [5] was “no adverse effects; also recorded: no significant differences”. For the same compound, the “mean myofiber diameter vs left control group” value ([6]; left abductor pollicis, 6 months, 6-mg, 12-mg, 18-mg groups, p<0.01 (FIG. 5)) was “small but significant increase”, the “mean myofiber diameter vs right control group” value ([6]; right abductor pollicis, 6 months after nerve repair, 6-mg, 12-mg, 18-mg groups, p<0.01 (FIG. 5)) was “significant increase” and the “percent atrophy: loss of myofiber diameter vs left, unoperated abductor pollicis” value ([6]; right abductor pollicis, 6 months after nerve repair, oral leupeptin 3-mg group) was 30%. For the same compound, the “percent atrophy: loss of myofiber diameter vs left, unoperated abductor pollicis” value ([6]; right abductor pollicis, 6 months after nerve repair, oral leupeptin 6-mg group) was 5%, the “increase in myofiber diameter (no atrophy) vs left, unoperated abductor pollicis” value ([6]; right abductor pollicis, 6 months after nerve repair, oral leupeptin 12-mg group) was 1.2% and the “increase in myofiber diameter (no atrophy) vs left, unoperated abductor pollicis” value ([6]; right abductor pollicis, 6 months after nerve repair, oral leupeptin 18-mg group) was 1.3%. The “mean myofiber diameter vs right control group” value ([6]; right opponens pollicis, 3 months after nerve repair, all leupeptin treatment groups, p<0.01 (FIG. 4)) was “significant increase”, the “percentage atrophy: loss of myofiber diameter vs left, unoperated control group” value (“percentage atrophy: loss” below) ([6]; right opponens pollicis, oral leupeptin 3-mg group) was 53% and the “percentage atrophy: loss” value ([6]; right opponens pollicis, oral leupeptin 6-mg group) was 23%. The “percentage atrophy: loss” value ([6]; right opponens pollicis, oral leupeptin 12-mg group) was 11%, the “percentage atrophy: loss” value ([6]; right opponens pollicis, oral leupeptin 18-mg group) was 8% and the “% inhibition of muscle calpain activity” value ([7]; 75 μmoles) was 20%. For the same compound, the “% inhibition/μmole” value [7] was 0.26% and the “Fold (effectiveness per μmole relative to leupeptin)” value [7] was 1.
